The text below walks through data of article PMC10084949, “Peptide Variant Detection by a Living Yeast Biosensor via an Epitope-Selective Protease” (Biodesign Research, 2023).

One assay has as its target T1, ScSte2 + ScBar1 (Saccharomyces cerevisiae, UniProt D6VTK4).
T1 construct: we cloned codon-optimized open reading frames (ORFs) of all 5 proteases and GPCRs; expressed in transfected cells; host or cells: S. cerevisiae yBB01 (from yTC370; pTDH3-ScSTE2, two pCCW12-ScBAR1 cassettes, genome-integrated)
In words: Dose-response activation of ScSte2 biosensor strain secreting ScBar1 (two copies, yBB01), fluorescent readout. In kind it is cell-based. The settings on record: SEM. Here is the method: (§1) Glycerol stocked strains were streaked out on YPD plate and incubated for 2 days. Three colonies were picked, replated on YPD plate, incubated for 1 day, and then stored at 4 °C. For activation assays, a small scoop of yeast patch from the 3 colonies was resuspended in ~4 ml of YPD medium and incubated overnight. Overnight cells were seeded at an optical density at 600 nm (OD600) of 0.15 (as measured in 96-well plate at 200-μl volume) in SC/Glc medium after washing twice with sterile Mili-Q H2O. GPCR activity and response to increasing concentrations of synthetic peptide ligands were measured in strains carrying appropriate genome-integrated components in 96-well microtiter plates in 200-μl total volume and cultured at 30 °C and 800 rpm, unless otherwise stated. All measurements were performed in biological triplicate. Culture turbidity (OD600) and fluorescence for ymTurquoise2 (excitation, 439 nm; emission, 475 nm; gain, 75) were measured after 0 and 8 h using an Infinite 200 Pro plate reader (Tecan). Dose–response curve was measured at 11 different concentrations of the appropriate synthetic peptide ligand with a constant dilution factor and a no-peptide, H2O control. The absorbance at 600 nm normalized fluorescence values and log10-transformed peptide concentrations were fit to a 4-parameter nonlinear regression model using Prism (GraphPad) to extract GPCR-specific values for basal activation, maximal activation, EC50, and the Hill coefficient.
(§2) Statistical tests of all experiments were performed using GraphPad Prism version 7 and are detailed within the legend of each figure. In all figures, the data points represent means ± SD of biological triplicates. Curves fitted to all dose–response data were fitted in Prism 7 using the nonlinear regression: variable slope (4-parameter) curve fitting.
(§3) Changes in EC50 and activation span (maximal fluorescence activation − basal fluorescence activation) due to difference in variant peptide sequences from the wild-type peptides are depicted as ΔlogEC50 from wild-type Pep (variant peptide logEC50 − wild-type peptide logEC50) and ΔSpan from wild-type Pep (variant peptide Span – wild-type peptide Span), respectively. Apparent shift in EC50 and change in activation span in both wild-type and variant peptides due to protease expression are depicted as ΔlogEC50 with protease (peptide logEC50 with protease − peptide logEC50 without protease) and ΔSpan with protease (peptide Span with protease − peptide Span without protease), respectively.

The target in a further assay is T2, ScSte2 (Saccharomyces cerevisiae, UniProt D6VTK4).
T2 construct: we cloned codon-optimized open reading frames (ORFs) of all 5 proteases and GPCRs; expressed in transfected cells; host or cells: S. cerevisiae yTC391 (from yTC370, native STE2 deleted; pTDH3-ScSTE2 genome-integrated)
T2 sequence (D6VTK4 whole entry): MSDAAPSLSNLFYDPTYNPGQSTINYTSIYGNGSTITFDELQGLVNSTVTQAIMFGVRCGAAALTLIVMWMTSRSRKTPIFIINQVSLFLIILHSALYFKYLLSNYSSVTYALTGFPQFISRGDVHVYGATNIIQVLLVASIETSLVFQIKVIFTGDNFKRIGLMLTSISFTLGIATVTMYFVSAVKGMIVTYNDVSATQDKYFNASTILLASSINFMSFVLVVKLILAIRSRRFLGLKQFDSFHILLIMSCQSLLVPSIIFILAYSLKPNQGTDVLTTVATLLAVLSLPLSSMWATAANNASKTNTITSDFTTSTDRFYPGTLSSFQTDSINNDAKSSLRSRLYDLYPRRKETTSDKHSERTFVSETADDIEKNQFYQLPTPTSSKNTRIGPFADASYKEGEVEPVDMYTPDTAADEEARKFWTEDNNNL
The assay can be described thus: cell-based. The settings on record: SEM. How it is done: as §1, §2, §3

T1 sequence (D6VTK4 whole entry): as above

A word on the EC50: it is the concentration at which the effect is half-maximal. Take `CSCC[C@H](NC(=O)[C@@H]1CCCN1C(=O)[C@H](CCC(N)=O)NC(=O)CNC(=O)[C@@H]1CCCN1C(=O)[C@H](CCCCN)NC(=O)[C@H](CC(C)C)NC(=O)[C@H](CCC(N)=O)NC(=O)[C@H](CC(C)C)NC(=O)[C@H](Cc1c[nH]c2ccccc12)NC(=O)[C@H](Cc1c[nH]cn1)NC(=O)[C@H](C)N)C(=O)N[C@@H](Cc1ccc(O)cc1)C(=O)O` [ScPep1A]: the EC50 was 1260 nM at ScSte2 + ScBar1 and 39.8 nM at ScSte2. On to `CSCC[C@H](NC(=O)[C@@H]1CCCN1C(=O)[C@H](CCC(N)=O)NC(=O)CNC(=O)[C@@H]1CCCN1C(=O)[C@H](CCCCN)NC(=O)[C@H](CC(C)C)NC(=O)[C@H](CCC(N)=O)NC(=O)[C@H](CC(C)C)NC(=O)[C@H](Cc1c[nH]c2ccccc12)NC(=O)[C@H](C)NC(=O)[C@@H](N)Cc1c[nH]c2ccccc12)C(=O)N[C@@H](Cc1ccc(O)cc1)C(=O)O` [ScPep2A], for which the 50% effective concentration (EC50) at ScSte2 + ScBar1 was 10000 nM; at ScSte2, 79.4 nM. In the same order, the values of `CSCC[C@H](NC(=O)[C@@H]1CCCN1C(=O)[C@H](CCC(N)=O)NC(=O)CNC(=O)[C@@H]1CCCN1C(=O)[C@H](CCCCN)NC(=O)[C@H](CC(C)C)NC(=O)[C@H](CCC(N)=O)NC(=O)[C@H](CC(C)C)NC(=O)[C@H](C)NC(=O)[C@H](Cc1c[nH]cn1)NC(=O)[C@@H](N)Cc1c[nH]c2ccccc12)C(=O)N[C@@H](Cc1ccc(O)cc1)C(=O)O` [ScPep3A] are 25100 nM and 63.1 nM. Regarding `CSCC[C@H](NC(=O)[C@@H]1CCCN1C(=O)[C@H](CCC(N)=O)NC(=O)CNC(=O)[C@@H]1CCCN1C(=O)[C@H](CCCCN)NC(=O)[C@H](CC(C)C)NC(=O)[C@H](CCC(N)=O)NC(=O)[C@H](C)NC(=O)[C@H](Cc1c[nH]c2ccccc12)NC(=O)[C@H](Cc1c[nH]cn1)NC(=O)[C@@H](N)Cc1c[nH]c2ccccc12)C(=O)N[C@@H](Cc1ccc(O)cc1)C(=O)O` [ScPep4A], the EC50 on ScSte2 + ScBar1 is 3980 nM.

For `CSCC[C@H](NC(=O)[C@@H]1CCCN1C(=O)[C@H](CCC(N)=O)NC(=O)CNC(=O)[C@@H]1CCCN1C(=O)[C@H](CCCCN)NC(=O)[C@H](CC(C)C)NC(=O)[C@H](C)NC(=O)[C@H](CC(C)C)NC(=O)[C@H](Cc1c[nH]c2ccccc12)NC(=O)[C@H](Cc1c[nH]cn1)NC(=O)[C@@H](N)Cc1c[nH]c2ccccc12)C(=O)N[C@@H](Cc1ccc(O)cc1)C(=O)O` [ScPep5A], the figures for the EC50 at ScSte2 + ScBar1 and on ScSte2 were 501 nM and 50.1 nM, respectively. In the same order, the values of `CSCC[C@H](NC(=O)[C@@H]1CCCN1C(=O)[C@H](CCC(N)=O)NC(=O)CNC(=O)[C@@H]1CCCN1C(=O)[C@H](CCCCN)NC(=O)[C@H](C)NC(=O)[C@H](CCC(N)=O)NC(=O)[C@H](CC(C)C)NC(=O)[C@H](Cc1c[nH]c2ccccc12)NC(=O)[C@H](Cc1c[nH]cn1)NC(=O)[C@@H](N)Cc1c[nH]c2ccccc12)C(=O)N[C@@H](Cc1ccc(O)cc1)C(=O)O` [ScPep6A] are 3160 nM and 79.4 nM. On to `CSCC[C@H](NC(=O)[C@@H]1CCCN1C(=O)[C@H](CCC(N)=O)NC(=O)CNC(=O)[C@@H]1CCCN1C(=O)[C@H](C)NC(=O)[C@H](CC(C)C)NC(=O)[C@H](CCC(N)=O)NC(=O)[C@H](CC(C)C)NC(=O)[C@H](Cc1c[nH]c2ccccc12)NC(=O)[C@H](Cc1c[nH]cn1)NC(=O)[C@@H](N)Cc1c[nH]c2ccccc12)C(=O)N[C@@H](Cc1ccc(O)cc1)C(=O)O` [ScPep7A], for which the concentration giving a half-maximal response (EC50) at ScSte2 + ScBar1 is 3980 nM; on ScSte2, 126 nM. Consider `CSCC[C@H](NC(=O)[C@@H]1CCCN1C(=O)[C@H](CCC(N)=O)NC(=O)CNC(=O)[C@H](C)NC(=O)[C@H](CCCCN)NC(=O)[C@H](CC(C)C)NC(=O)[C@H](CCC(N)=O)NC(=O)[C@H](CC(C)C)NC(=O)[C@H](Cc1c[nH]c2ccccc12)NC(=O)[C@H](Cc1c[nH]cn1)NC(=O)[C@@H](N)Cc1c[nH]c2ccccc12)C(=O)N[C@@H](Cc1ccc(O)cc1)C(=O)O` [ScPep8A], for which the concentration for a half-maximal effect (EC50) on ScSte2 + ScBar1 was 2510 nM; at ScSte2, 79.4 nM. Turning to `CSCC[C@H](NC(=O)[C@@H]1CCCN1C(=O)[C@H](CCC(N)=O)NC(=O)[C@H](C)NC(=O)[C@@H]1CCCN1C(=O)[C@H](CCCCN)NC(=O)[C@H](CC(C)C)NC(=O)[C@H](CCC(N)=O)NC(=O)[C@H](CC(C)C)NC(=O)[C@H](Cc1c[nH]c2ccccc12)NC(=O)[C@H](Cc1c[nH]cn1)NC(=O)[C@@H](N)Cc1c[nH]c2ccccc12)C(=O)N[C@@H](Cc1ccc(O)cc1)C(=O)O` [ScPep9A], the concentration giving a half-maximal response (EC50) was 15800 nM at ScSte2 + ScBar1 and 158 nM on ScSte2. For `CSCC[C@H](NC(=O)[C@@H]1CCCN1C(=O)[C@H](C)NC(=O)CNC(=O)[C@@H]1CCCN1C(=O)[C@H](CCCCN)NC(=O)[C@H](CC(C)C)NC(=O)[C@H](CCC(N)=O)NC(=O)[C@H](CC(C)C)NC(=O)[C@H](Cc1c[nH]c2ccccc12)NC(=O)[C@H](Cc1c[nH]cn1)NC(=O)[C@@H](N)Cc1c[nH]c2ccccc12)C(=O)N[C@@H](Cc1ccc(O)cc1)C(=O)O` [ScPep10A] the same measures were 6310 nM and 126 nM. For `CSCC[C@H](NC(=O)[C@H](C)NC(=O)[C@H](CCC(N)=O)NC(=O)CNC(=O)[C@@H]1CCCN1C(=O)[C@H](CCCCN)NC(=O)[C@H](CC(C)C)NC(=O)[C@H](CCC(N)=O)NC(=O)[C@H](CC(C)C)NC(=O)[C@H](Cc1c[nH]c2ccccc12)NC(=O)[C@H](Cc1c[nH]cn1)NC(=O)[C@@H](N)Cc1c[nH]c2ccccc12)C(=O)N[C@@H](Cc1ccc(O)cc1)C(=O)O` [ScPep11A] the same measures were 2510 nM and 50.1 nM. As for `CC(C)C[C@H](NC(=O)[C@H](Cc1c[nH]c2ccccc12)NC(=O)[C@H](Cc1c[nH]cn1)NC(=O)[C@@H](N)Cc1c[nH]c2ccccc12)C(=O)N[C@@H](CCC(N)=O)C(=O)N[C@@H](CC(C)C)C(=O)N[C@@H](CCCCN)C(=O)N1CCC[C@H]1C(=O)NCC(=O)N[C@@H](CCC(N)=O)C(=O)N1CCC[C@H]1C(=O)N[C@@H](C)C(=O)N[C@@H](Cc1ccc(O)cc1)C(=O)O` [ScPep12A], the figures for the 50% effective concentration (EC50) at ScSte2 + ScBar1 and at ScSte2 were 1000 nM and 50.1 nM, respectively.

Regarding `CSCC[C@H](NC(=O)[C@@H]1CCCN1C(=O)[C@H](CCC(N)=O)NC(=O)CNC(=O)[C@@H]1CCCN1C(=O)[C@H](CCCCN)NC(=O)[C@H](CC(C)C)NC(=O)[C@H](CCC(N)=O)NC(=O)[C@H](CC(C)C)NC(=O)[C@H](Cc1c[nH]c2ccccc12)NC(=O)[C@H](Cc1c[nH]cn1)NC(=O)[C@@H](N)Cc1c[nH]c2ccccc12)C(=O)N[C@@H](C)C(=O)O` [ScPep13A], the EC50 is 7940 nM on ScSte2 + ScBar1 and 63.1 nM on ScSte2.
